Experimental data as given in US20140066475A1, “Method For Treating Pruritus” (Euro-Celtique S.A., priority 2012, published 2014).
Where a name gives a salt, the structure may show the parent alone. Marks after values point to notes of the source that are not given here.

Columns and labels:
adult male CD-1 mice = assay: In vivo itch response assay (Compound 48/80-induced scratching); details: for Effect on scratch response: given 20 min before pruritogen Compound 48/80
Experimental: In Vivo Model and Procedures:
An in vivo model was devised and implemented to evaluate the antipruritic activity of compounds in mice. Compound 48/80 (Sigma Chemical), a known pruritogen in mice, was mixed in a 0.9% saline vehicle and administered to various cohorts of adult male CD-1 mice by s.c. injection at the nape of the neck at dosage levels of 12.5, 25, 50 and 100 μg. The saline vehicle alone was used as a control. The mice were monitored visually and scratching bouts were counted over the ensuing 30 minutes.
Next, test benzomorphan Compound #1 (see Examples 1 and 2 above) was given in various doses (Table 3 below) in the rear flank 20 minutes prior to pruritogen injection in the same manner as the Nalfurafine.

kappa opioid receptor = biological target: T1, kappa opioid receptor (Homo sapiens, UniProt P41145); assay: κ-opioid receptor [35S]GTPγS functional assay; assay type: biochemical; details: relative to U69,593; read-out: GTPγS κ Emax [mean ± SEM]
T1 construct: expressed in transfected cells; host or cells: HEK-293
T1 sequence (P41145 whole entry): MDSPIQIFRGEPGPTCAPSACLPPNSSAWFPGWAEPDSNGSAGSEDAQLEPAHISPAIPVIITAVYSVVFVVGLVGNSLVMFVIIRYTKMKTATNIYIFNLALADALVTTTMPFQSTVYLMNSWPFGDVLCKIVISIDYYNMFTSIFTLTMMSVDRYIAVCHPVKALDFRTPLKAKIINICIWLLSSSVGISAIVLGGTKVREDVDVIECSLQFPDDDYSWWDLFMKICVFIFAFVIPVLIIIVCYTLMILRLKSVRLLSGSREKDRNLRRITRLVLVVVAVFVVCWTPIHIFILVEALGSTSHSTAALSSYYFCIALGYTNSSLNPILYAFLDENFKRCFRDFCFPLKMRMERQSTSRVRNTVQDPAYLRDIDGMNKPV
Experimental: Similarly for KOR, the κ GTP Emax (%) is the maximal effect elicited by a compound relative to the effect elicited by the known κ-agonist, U69,593.
κ-Opioid Receptor Functional Assay Procedures:
Functional [^35S]GTPγS binding assays were conducted as follows. Kappa opioid receptor membrane solution was prepared by sequentially adding final concentrations of 0.026 μg/μl kappa membrane protein (in-house), 10 μg/mL saponin, 3 μM GDP and 0.20 nM [^35S]GTPγS to binding buffer (100 mM NaCl, 10 mM MgCl2, 20 mM HEPES, pH 7.4) on ice. The prepared membrane solution (190 μl/well) was transferred to 96-shallow well polypropylene plates containing 10 μl of 20× concentrated stock solutions of agonist prepared in DMSO. Plates were incubated for 30 min at a temperature of about 25° C. with shaking. Reactions were terminated by rapid filtration onto 96-well Unifilter GF/B filter plates (Packard) using a 96-well tissue harvester (Packard) and followed by three filtration washes with 200 μl ice-cold […] (10 mM NaH2PO4, 10 mM Na2HPO4, pH 7.4). Filter plates were subsequently dried at 50° C. for 2-3 hours. Fifty μl/well scintillation cocktail (MicroScint20, Packard) was added and plates were counted in a Packard Top-Count for 1 min/well.

μ-opioid receptor = μ-opioid receptor (Homo sapiens, UniProt P35372); assay: μ-opioid receptor [35S]GTPγS functional assay; assay type: biochemical
μ-opioid receptor, sequence (P35372 whole entry, species assumed): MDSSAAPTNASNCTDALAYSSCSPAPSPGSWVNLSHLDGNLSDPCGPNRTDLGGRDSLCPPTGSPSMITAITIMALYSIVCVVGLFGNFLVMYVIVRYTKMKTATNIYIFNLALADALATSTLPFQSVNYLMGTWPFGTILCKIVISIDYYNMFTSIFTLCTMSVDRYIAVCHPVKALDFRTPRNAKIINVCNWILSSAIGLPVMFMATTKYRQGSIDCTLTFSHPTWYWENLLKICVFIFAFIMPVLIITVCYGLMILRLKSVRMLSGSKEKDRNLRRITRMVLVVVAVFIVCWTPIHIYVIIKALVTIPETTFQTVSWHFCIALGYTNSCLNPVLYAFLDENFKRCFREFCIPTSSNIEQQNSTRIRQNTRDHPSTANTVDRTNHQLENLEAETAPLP
Description: Measures of a compound's activity at a given receptor are given by GTP Emax and GTP EC50. GTP Emax (%) is the maximal effect elicited by a compound relative to the effect elicited by a standard, known agonist compound. GTP EC50 is the concentration of a compound providing 50% of the maximal response for that compound at a given receptor. For MOR, the μ GTP Emax (%) is the maximal effect elicited by a compound relative to the effect elicited by the standard MOR agonist [D-Ala^2, N-methyl-Phe^4 Gly-ol^5]-enkephalin (a/k/a DAMGO). Generally, the μ GTP Emax (%) value measures the efficacy of a compound to treat or prevent pain or diarrhea.
μ-Opioid Receptor Functional Assay Procedures:
[^35S]GTPγS functional assays were conducted using freshly thawed μ-receptor membranes. Assay reactions were prepared by sequentially adding the following reagents to binding buffer (100 mM NaCl, 10 mM MgCl2, 20 mM HEPES, pH 7.4) on ice (final concentrations indicated): membrane protein (0.026 mg/mL), saponin ([…]), GDP ([…]) and [^35S]GTPγS (0.20 nM; NEN). […] BetaScint scintillation cocktail (Wallac, Turku, Finland) was added (50 μl/well) and plates were counted using a Packard Top-Count for 1 min/well. Data were analyzed using the sigmoidal dose-response curve fitting functions in GraphPad PRISM v. […]

| Compound | Total # Scratching Bouts in 30 mins (mean ± S.E.M.) (adult male CD-1 mice; 0.04 mg/kg s.c. 20 min before Compound 48/80 (0.5 mg/kg)) | Effect on scratch response (adult male CD-1 mice) | Emax (kappa opioid receptor) [%] | EC50 (μ-opioid receptor) [µM] | Emax (μ-opioid receptor; relative to DAMGO, read-out: GTPγS μ Emax [mean ± SEM]) [%] | Total # Scratching Bouts in 30 mins (mean ± S.E.M.) (adult male CD-1 mice; 3 mg/kg in rear flank 20 min before Compound 48/80 (0.5 mg/kg)) | Total # Scratching Bouts in 30 mins (mean ± S.E.M.) (adult male CD-1 mice; 10 mg/kg in rear flank 20 min before Compound 48/80 (0.5 mg/kg)) | Total # Scratching Bouts in 30 mins (mean ± S.E.M.) (adult male CD-1 mice; 30 mg/kg in rear flank 20 min before Compound 48/80 (0.5 mg/kg)) |
| --- | --- | --- | --- | --- | --- | --- | --- | --- |
| CN(C(=O)/C=C/c1ccoc1)[C@@H]1CC[C@@]2(O)[C@H]3Cc4ccc(O)c5c4[C@@]2(CCN3CC2CC2)[C@H]1O5 [Nalfurafine, Nalfurafine HCl, reference compound] | 25.6 ± 7.92^d | dose dependent reduction in scratch response | – | – | – | – | – | – |
| C=CC[N+]1(C)CCC2(C)c3cc(O)ccc3C[C@@H]1[C@@H]2C.[I-] (stereo partly drawn) [Compound #1] | – | alleviated pruritus by reducing the mean number of scratching bouts | 27.3 ± 3.38 | > 20 | 3.67 ± 1.33 | 155.8 ± 13.73^a | 129.4 ± 16.18^b | 70.8 ± 19.74^c |
